# Laboratory results: patent US4068070A, “α-Cyanoamine compounds and a process for producing the same” (Fuji Chemical Industry Co., Ltd., priority 1974, dated 1978)
# Key:
# Assay type in all cases: in vivo, mongrel adult dogs
# [1] = tested on: aortic blood flow; assay: Effects on aortic blood flow
# Procedure: (§1) All experiments were made on male and female thoractomized mongrel adult dogs weighing about 10 kg. under anesthesia with pentobarbital sodium. Compounds A, D, E and F were suspended in 0.2% CMC solution, Compound B dissolved in hydrochloric acid solution (pH 6), and Compound C and active placebo being dissolved in physiological saline solution. Animals were administered the drug intravenously on brachiuma with either test compound or active placebo.
# (§2) Arterial blood pressure was measured by pressure transducer (Nippon Koden MPU-0.5) connected with the cannula inserted from exposed carotid artery into aorta. Aortic blood flow was determined by means of electromagnetic flow meter (Nippon Koden MF-5) mounted at the origin of the aorta. Coronary sinus out flow and coronary sinus oxygen tension were assessed by means of electromagnetic flow meter (Nippon Koden MF-5) and P02 macro electrode (Beokmann Moder 160-C), respectively using Morawitz cannulization technique. Heart rate was measured by cardiotachometer (Nippon Koden RT-2) synchronized with systolic blood pressure of aorta.
# [2] = tested on: heart rate; assay: Effects on heart rate
# Procedure: as §1, §2
# [3] = tested on: coronary sinus oxygen tension; assay: Effects on coronary sinus oxygen tension
# Procedure: as §1, §2
# [4] = tested on: arterial mean blood pressure; assay: Effects on arterial mean blood pressure
# Procedure: as §1, §2
# [5] = tested on: coronary sinus out flow; assay: Effects on coronary sinus out flow
# Procedure: as §1, §2
smiles,measurement,setting,value
COc1ccc(C(C#N)N2CCN(CC(=O)N3CCCC3)CC2)cc1OC (centres unmarked) [Compound C],"Changes (%) of basal values, aortic blood flow","[1]; 2.0 mg/kg i.v., 1 min",+2.3%
same,"Changes (%) of basal values, aortic blood flow","[1]; 2.0 mg/kg i.v., 5 min",+0.7%
same,"Changes (%) of basal values, aortic blood flow","[1]; 2.0 mg/kg i.v., 10 min",-1.5%
same,"Changes (%) of basal values, aortic blood flow","[1]; 2.0 mg/kg i.v., 20 min",-0.3%
same,"Changes (%) of basal values, aortic blood flow","[1]; 2.0 mg/kg i.v., 30 min",-0.1%
same,"Changes (%) of basal values, aortic blood flow","[1]; 2.0 mg/kg i.v., 40 min",0%
same,"Changes (%) of basal values, aortic blood flow","[1]; 2.0 mg/kg i.v., imm.",+1.1%
same,"Changes (%) of basal values, aortic blood flow","[1]; 6.0 mg/kg i.v., 1 min",+3.4%
same,"Changes (%) of basal values, aortic blood flow","[1]; 6.0 mg/kg i.v., 5 min",+1.1%
same,"Changes (%) of basal values, aortic blood flow","[1]; 6.0 mg/kg i.v., 10 min",0%
same,"Changes (%) of basal values, aortic blood flow","[1]; 6.0 mg/kg i.v., 20 min",-1.0%
same,"Changes (%) of basal values, aortic blood flow","[1]; 6.0 mg/kg i.v., 30 min",-2.0%
same,"Changes (%) of basal values, aortic blood flow","[1]; 6.0 mg/kg i.v., 40 min",-1.1%
same,"Changes (%) of basal values, aortic blood flow","[1]; 6.0 mg/kg i.v., imm.",+8.5%
same,"Changes (%) of basal values, aortic blood flow","[1]; 20.0 mg/kg i.v., 1 min",+6.2%
same,"Changes (%) of basal values, aortic blood flow","[1]; 20.0 mg/kg i.v., 5 min",+4.8%
same,"Changes (%) of basal values, aortic blood flow","[1]; 20.0 mg/kg i.v., 10 min",+1.3%
same,"Changes (%) of basal values, aortic blood flow","[1]; 20.0 mg/kg i.v., 20 min",-7.1%
same,"Changes (%) of basal values, aortic blood flow","[1]; 20.0 mg/kg i.v., 30 min",-11.9%
same,"Changes (%) of basal values, aortic blood flow","[1]; 20.0 mg/kg i.v., 40 min",-8.3%
same,"Changes (%) of basal values, aortic blood flow","[1]; 20.0 mg/kg i.v., imm.",+15.8%
same,Effects on aortic blood flow (in words),"[1]; i.v., anesthetized dogs","an increase in blood flow immediately after administration, followed by a decrease in blood flow"
same,"Changes(%) of basal values, heart rate","[2]; 2.0 mg/kg i.v., 1 min",+1.1%
same,"Changes(%) of basal values, heart rate","[2]; 2.0 mg/kg i.v., 5 min",+0.3%
same,"Changes(%) of basal values, heart rate","[2]; 2.0 mg/kg i.v., 10 min",-0.2%
same,"Changes(%) of basal values, heart rate","[2]; 2.0 mg/kg i.v., 20 min",0%
same,"Changes(%) of basal values, heart rate","[2]; 2.0 mg/kg i.v., 30 min",0%
same,"Changes(%) of basal values, heart rate","[2]; 2.0 mg/kg i.v., 40 min",0%
same,"Changes(%) of basal values, heart rate","[2]; 2.0 mg/kg i.v., imm.",-2.8%
same,"Changes(%) of basal values, heart rate","[2]; 6.0 mg/kg i.v., 1 min",+5.1%
same,"Changes(%) of basal values, heart rate","[2]; 6.0 mg/kg i.v., 5 min",+1.3%
same,"Changes(%) of basal values, heart rate","[2]; 6.0 mg/kg i.v., 10 min",-0.3%
same,"Changes(%) of basal values, heart rate","[2]; 6.0 mg/kg i.v., 20 min",-1.0%
same,"Changes(%) of basal values, heart rate","[2]; 6.0 mg/kg i.v., 30 min",0%
same,"Changes(%) of basal values, heart rate","[2]; 6.0 mg/kg i.v., 40 min",0%
same,"Changes(%) of basal values, heart rate","[2]; 6.0 mg/kg i.v., imm.",-5.3%
same,"Changes(%) of basal values, heart rate","[2]; 20.0 mg/kg i.v., 1 min",+0.8%
same,"Changes(%) of basal values, heart rate","[2]; 20.0 mg/kg i.v., 5 min",+1.6%
same,"Changes(%) of basal values, heart rate","[2]; 20.0 mg/kg i.v., 10 min",-1.0%
same,"Changes(%) of basal values, heart rate","[2]; 20.0 mg/kg i.v., 20 min",-1.4%
same,"Changes(%) of basal values, heart rate","[2]; 20.0 mg/kg i.v., 30 min",-28%
same,"Changes(%) of basal values, heart rate","[2]; 20.0 mg/kg i.v., 40 min",-2.0%
same,"Changes(%) of basal values, heart rate","[2]; 20.0 mg/kg i.v., imm.",-25.6%
same,Effects on heart rate (in words),"[2]; i.v., anesthetized dogs",a slight negative chronotropic effect
same,"Changes(%) of basal values, coronary sinus oxygen tension","[3]; 2.0 mg/kg i.v., 1 min",+5.4%
same,"Changes(%) of basal values, coronary sinus oxygen tension","[3]; 2.0 mg/kg i.v., 5 min",+2.8%
same,"Changes(%) of basal values, coronary sinus oxygen tension","[3]; 2.0 mg/kg i.v., 10 min",+2.0%
same,"Changes(%) of basal values, coronary sinus oxygen tension","[3]; 2.0 mg/kg i.v., 20 min",+1.1%
same,"Changes(%) of basal values, coronary sinus oxygen tension","[3]; 2.0 mg/kg i.v., 30 min",0%
same,"Changes(%) of basal values, coronary sinus oxygen tension","[3]; 2.0 mg/kg i.v., 40 min",0%
same,"Changes(%) of basal values, coronary sinus oxygen tension","[3]; 2.0 mg/kg i.v., imm.",+12.1%
same,"Changes(%) of basal values, coronary sinus oxygen tension","[3]; 6.0 mg/kg i.v., 1 min",+29.2%
same,"Changes(%) of basal values, coronary sinus oxygen tension","[3]; 6.0 mg/kg i.v., 5 min",+22.3%
same,"Changes(%) of basal values, coronary sinus oxygen tension","[3]; 6.0 mg/kg i.v., 10 min",+19.8%
same,"Changes(%) of basal values, coronary sinus oxygen tension","[3]; 6.0 mg/kg i.v., 20 min",+15.0%
same,"Changes(%) of basal values, coronary sinus oxygen tension","[3]; 6.0 mg/kg i.v., 30 min",+14.3%
same,"Changes(%) of basal values, coronary sinus oxygen tension","[3]; 6.0 mg/kg i.v., 40 min",+12.0%
same,"Changes(%) of basal values, coronary sinus oxygen tension","[3]; 6.0 mg/kg i.v., imm.",+36.9%
same,"Changes(%) of basal values, coronary sinus oxygen tension","[3]; 20.0 mg/kg i.v., 1 min",+96.2%
same,"Changes(%) of basal values, coronary sinus oxygen tension","[3]; 20.0 mg/kg i.v., 5 min",+86.7%
same,"Changes(%) of basal values, coronary sinus oxygen tension","[3]; 20.0 mg/kg i.v., 10 min",+70.4%
same,"Changes(%) of basal values, coronary sinus oxygen tension","[3]; 20.0 mg/kg i.v., 20 min",+63.7%
same,"Changes(%) of basal values, coronary sinus oxygen tension","[3]; 20.0 mg/kg i.v., 30 min",+60.9%
same,"Changes(%) of basal values, coronary sinus oxygen tension","[3]; 20.0 mg/kg i.v., 40 min",+51.5%
same,"Changes(%) of basal values, coronary sinus oxygen tension","[3]; 20.0 mg/kg i.v., imm.",+79.1%
same,Effects on coronary sinus oxygen tension (in words),"[3]; i.v., anesthetized dogs","a significant increase in coronary sinus oxygen tension, effect of which was of long duration"
same,"Changes (%) of basal values, arterial mean blood pressure","[4]; 2.0 mg/kg i.v., 1 min",+0.8%
same,"Changes (%) of basal values, arterial mean blood pressure","[4]; 2.0 mg/kg i.v., 5 min",0%
same,"Changes (%) of basal values, arterial mean blood pressure","[4]; 2.0 mg/kg i.v., 10 min",0%
same,"Changes (%) of basal values, arterial mean blood pressure","[4]; 2.0 mg/kg i.v., 20 min",0%
same,"Changes (%) of basal values, arterial mean blood pressure","[4]; 2.0 mg/kg i.v., 30 min",0%
same,"Changes (%) of basal values, arterial mean blood pressure","[4]; 2.0 mg/kg i.v., 40 min",0%
same,"Changes (%) of basal values, arterial mean blood pressure","[4]; 2.0 mg/kg i.v., imm.",-4.2%
same,"Changes (%) of basal values, arterial mean blood pressure","[4]; 6.0 mg/kg i.v., 1 min",-3.9%
same,"Changes (%) of basal values, arterial mean blood pressure","[4]; 6.0 mg/kg i.v., 5 min",-1.6%
same,"Changes (%) of basal values, arterial mean blood pressure","[4]; 6.0 mg/kg i.v., 10 min",-0.7%
same,"Changes (%) of basal values, arterial mean blood pressure","[4]; 6.0 mg/kg i.v., 20 min",-3.6%
same,"Changes (%) of basal values, arterial mean blood pressure","[4]; 6.0 mg/kg i.v., 30 min",-2.5%
same,"Changes (%) of basal values, arterial mean blood pressure","[4]; 6.0 mg/kg i.v., 40 min",-1.3%
same,"Changes (%) of basal values, arterial mean blood pressure","[4]; 6.0 mg/kg i.v., imm.",-12.1%
same,"Changes (%) of basal values, arterial mean blood pressure","[4]; 20.0 mg/kg i.v., 1 min",-17.1%
same,"Changes (%) of basal values, arterial mean blood pressure","[4]; 20.0 mg/kg i.v., 5 min",-18.8%
same,"Changes (%) of basal values, arterial mean blood pressure","[4]; 20.0 mg/kg i.v., 10 min",-22.2%
same,"Changes (%) of basal values, arterial mean blood pressure","[4]; 20.0 mg/kg i.v., 20 min",-27.2%
same,"Changes (%) of basal values, arterial mean blood pressure","[4]; 20.0 mg/kg i.v., 30 min",-28.0%
same,"Changes (%) of basal values, arterial mean blood pressure","[4]; 20.0 mg/kg i.v., 40 min",-26.1%
same,"Changes (%) of basal values, arterial mean blood pressure","[4]; 20.0 mg/kg i.v., imm.",-29.0%
same,Effects on arterial mean blood pressure (in words),"[4]; i.v., anesthetized dogs",hypotensive effects being proportioned to their doses which were of long duration
same,"Changes(%) of basal values, coronary sinus out flow","[5]; 2.0 mg/kg i.v., 1 min",+4.7%
same,"Changes(%) of basal values, coronary sinus out flow","[5]; 2.0 mg/kg i.v., 5 min",+4.9%
same,"Changes(%) of basal values, coronary sinus out flow","[5]; 2.0 mg/kg i.v., 10 min",+3.2%
same,"Changes(%) of basal values, coronary sinus out flow","[5]; 2.0 mg/kg i.v., 20 min",+2.1%
same,"Changes(%) of basal values, coronary sinus out flow","[5]; 2.0 mg/kg i.v., 30 min",+1.6%
same,"Changes(%) of basal values, coronary sinus out flow","[5]; 2.0 mg/kg i.v., 40 min",+1.1%
same,"Changes(%) of basal values, coronary sinus out flow","[5]; 2.0 mg/kg i.v., imm.",+17.8%
same,"Changes(%) of basal values, coronary sinus out flow","[5]; 6.0 mg/kg i.v., 1 min",+50.7%
same,"Changes(%) of basal values, coronary sinus out flow","[5]; 6.0 mg/kg i.v., 5 min",+28.6%
same,"Changes(%) of basal values, coronary sinus out flow","[5]; 6.0 mg/kg i.v., 10 min",+19.4%
same,"Changes(%) of basal values, coronary sinus out flow","[5]; 6.0 mg/kg i.v., 20 min",+18.2%
same,"Changes(%) of basal values, coronary sinus out flow","[5]; 6.0 mg/kg i.v., 30 min",+14.3%
same,"Changes(%) of basal values, coronary sinus out flow","[5]; 6.0 mg/kg i.v., 40 min",+7.6%
same,"Changes(%) of basal values, coronary sinus out flow","[5]; 6.0 mg/kg i.v., imm.",+58.2%
same,"Changes(%) of basal values, coronary sinus out flow","[5]; 20.0 mg/kg i.v., 1 min",+103.2%
same,"Changes(%) of basal values, coronary sinus out flow","[5]; 20.0 mg/kg i.v., 5 min",+92.1%
same,"Changes(%) of basal values, coronary sinus out flow","[5]; 20.0 mg/kg i.v., 10 min",+80.8%
same,"Changes(%) of basal values, coronary sinus out flow","[5]; 20.0 mg/kg i.v., 20 min",+56.2%
same,"Changes(%) of basal values, coronary sinus out flow","[5]; 20.0 mg/kg i.v., 30 min",+36.2%
same,"Changes(%) of basal values, coronary sinus out flow","[5]; 20.0 mg/kg i.v., 40 min",+30.0%
same,"Changes(%) of basal values, coronary sinus out flow","[5]; 20.0 mg/kg i.v., imm.",+101.9%
same,Effects on coronary sinus out flow (in words),"[5]; i.v., anesthetized dogs","a marked increasing effect on coronary sinus out flow, which was proportioned to doses thereof and of long duration"
